A short description of series [1]: Induction of H2S release in phosphate buffer at 200 uM using 5,5'-dithiobis-(2-nitrobenzoic acid).
The nature of series [2]: Cytotoxicity against human Jurkat T cells assessed as reduction in cell viability at 200 uM after 24 hrs by tryphan blue assay.
The test system of series [3] is RAW264.7. The following applies: Mus musculus, at 200 µM.
Description: Antiinflammatory activity in mouse RAW264.7 cells assessed as inhibition of LPS-induced NO production at 200 uM preincubated for 1 hr before LPS challenge measured after 24 hrs by Griess method
The test system of series [4] is RAW264.7. The conditions noted are these: Mus musculus, at 200 µM. The source holds these as a separate data set.
Description: Antiinflammatory activity in mouse RAW264.7 cells assessed as inhibition of LPS-induced PGE2 production at 200 uM preincubated for 1 hr before LPS challenge measured after 24 hrs by ELISA

Each structure is given as a SMILES string. Activity calls are given as the source filed them. The calls are words filed in the database; no cut-off is given here.

As to `COc1ccc(P([O-])(=S)N2CCOCC2)cc1.[K+]` (centres undefined), the Activity entry in series [1] is “Not Active”; in series [2], “Non-toxic”. Further, the inhibition result in series [3] and in series [4] was “inactive” in each case.

The values above are taken from ChEMBL document CHEMBL3751739, “Investigating the generation of hydrogen sulfide from the phosphonamidodithioate slow-release donor GYY4137” (Medchemcomm, 2015).
